{"source": "patent US7928128B2", "about": "“Use of(R)-(−) -2-[5-(4-fluorophenyl)-3-pyridylmethylaminomethyl]-chromane and its physiologically acceptable salts” (Merck Patent Gesellschaft mit beschrankter Haftung, priority 2000, dated 2011)", "key": {"[1]": {"tested_on": "Parkinsonian cynomolgus monkey", "test": "MPTP Parkinsonian cynomolgus monkey chronically treated with I-dopa (adverse effects of anti-Parkinsonian drugs)", "format": "in vivo", "conditions": "MPTP monkeys, long-term I-dopa", "experimental": "Treatment of adverse effects of conventional anti-Parkinsonian drugs as defined above are determined in a modification of the animal model of the Parkinsonian cynomolgus monkey according to P. J. Blanchet et al., Exp. Neurology 1998; 153: 214-222. Monkeys render parkinsonian by repeated injections of 1-methyl-4-phenyl-1,2,3,6-tetrahydropyridine (MPTP). The Parkinsonian monkeys are chronically treated with the standard I-dopa therapy according to P. J. Blanchet et al., Mov. Disord., 1998; 13: 798-802. Longterm treatment with I-dopa induces extrapyramidal motor side effects and psychotic states which are both qualitatively and quantitatively, assessed by the Abnormal Involuntary Movement Scale (P. J. Blanchet et al., Mov. Disord. 1998; 13: 798-802) for different body parts (face, neck, trunk, each limb) and by rating for psychotic states by observing the monkey's attention, reactivity and mobility."}, "[2]": {"tested_on": "oxotremorine-induced tremor", "test": "Oxotremorine-induced tremor", "format": "in vivo", "conditions": "rating scale", "experimental": "A typical animal model for drug-induced tremors is the oxotremorine-induced tremor (e.g. H. Hallberg and O. Almgren, Acta Physiol. Scand., 1987; 129: 407-13; J. G. Clement and W. R. Dyck, J. Pharmacol. Meth., 1989; 22: 25-36). Oxotremorine induces tremor which is measured by a rating scale. (R)-(−)-2-[5-(4-fluoro-phenyl)-3-pyridyl-methyl-amino-methyl]-chromane or one of its pharmaceutically acceptable salt inhibited oxotremorine-induced tremors."}, "[3]": {"tested_on": "rats", "test": "Catalepsy induction in rats (extrapyramidal motor side effects)", "format": "in vivo, rat", "conditions": "doses up to 500 fold higher compared to the doses effective in the animal models", "experimental": "(§1) Extrapyramidal motor side effects in e.g. rodents are measured by the ability of a drug to induce catalepsy. Catalepsy is defined as a state where an animal continues to remain in an unnormal (nonphysiological 'uncomfortable') posture for a long time ([…] and S. D. Glick, Neuropharmacology, 1996; 15: 393-394; […] P. Janssen, Life Sci., 1979, […]). For example, if a hindpaw of a rat is placed on an elevated level, e.g. a platform elevated 3 cm above ground level, a normal rat immediately withdraws the hindpaw from the platform to the ground level. A cataleptic rat remains in this unnatural posture even for minutes."}, "[4]": {"tested_on": "posthypoxic myoclonus, rats", "test": "Posthypoxic myoclonus in rats", "format": "in vivo, rat", "conditions": "after cardiac arrest for 8 minutes", "experimental": "A typical animal model for myoclonus is myoclonus induced by an acute hypoxic episode according to D. D. Truong et al., Mov. Disord., 1994; 9: 201-206). In this model of posthypoxic myoclonus, rats undergo a cardiac arrest for 8 minutes and are resuscitated thereafter. Myoclonic jerks occur spontaneously but can be provoked by auditory stimulation, too, worsening over the days following cardiac arrest."}, "[5]": {"tested_on": "reserpinized rat or mouse", "test": "Reserpinized rat or mouse (akinesia)", "format": "in vivo", "conditions": "24 h after reserpine", "experimental": "A typical animal model is the reserpinized rat or mouse (e.g. […]. Neural Transm.-Park. Dis. Dement. Sect., 1994; 7: 133-142; M. Gossel et al., J. Neural Transm.-Park. Dis. Dement. Sect., 1995; 10: 27-39; N. R. Hughes et al., Mov. Disord., 1998; 13: 228-233). Reserpine is a potent depleter of monoamines and produces nearly complete akinesia in both species. Prominent 24 h after application, the distance traveled and the time active is nearly zero as measured in conventional activity meters."}, "[6]": {"tested_on": "mutant dystonic hamster", "test": "Mutant dystonic hamster", "format": "in vivo", "conditions": "scoring system", "excerpt": "A typical animal model is the mutant dystonic hamster according to A. Richter and W. Löscher, Prog. Neurobiol. 1998; 54: 633-677. In this genetically dystonic hamsters, dystonic attacks are provoked by taking the animal from the home cage and placing it on a balance. The dystonic syndrome consists of a sequence of abnormal movements, and the severity of the single symptoms is rated by a scoring system."}, "[7]": {"tested_on": "systemic 3-nitropropionic acid (3-NP) model in rats", "test": "Systemic 3-nitropropionic acid (3-NP) model in rats, nocturnal activity", "format": "in vivo, rat", "source_text": "A typical animal model is the systemic 3-nitropropionic acid (3-NP) model in rats according to C.\nAfter two injections of 3-NP, rats display nocturnal hyperactivity reflecting symptoms of early Huntington's disease, whereas rats treated with four injections of 3-NP display nocturnal akinesia (hypoactivity) reflecting symptoms of late Huntington's disease. Nocturnal activity is automatically measured in conventional activity cages by infrared beams."}, "[8]": {"tested_on": "catalepsy induced by conventional antidopaminergic drugs such as haloperidol", "test": "Catalepsy induced by conventional antidopaminergic drugs such as haloperidol", "format": "in vivo", "conditions": "same dose-range as effective in the animal models", "experimental": "as §1"}, "[9]": {"tested_on": "Campus Syndrome in the Pietrain pig", "test": "Campus Syndrome in the Pietrain pig (tremor)", "format": "in vivo", "conditions": "accelerometric recording", "excerpt": "(§2) Typical genetic models in mutant animals are the Campus Syndrome in the Pietrain pig according to A. Richter et al. (Exp. Neurology, 1995; 134: 205-213) or the Weaver mutant mouse according to J. R. Simon and B. Ghetti (Mol. Neurobiol., 1994; 9: 183-189). In the Campus Syndrome model, these mutant pigs show a high-frequency tremor when standing and during locomotion, but not while lying at rest. Assessment of tremor is made by accelerometric recording. In the Weaver mutant mouse, degenerative cerebellar atrophy is fould in association with tremor, gait instability, and toppling over the sides after a few steps."}, "[10]": {"molecular_target": "T1, 5-HT1A receptor (Homo sapiens, UniProt P08908)", "T1 sequence (P08908 whole entry)": "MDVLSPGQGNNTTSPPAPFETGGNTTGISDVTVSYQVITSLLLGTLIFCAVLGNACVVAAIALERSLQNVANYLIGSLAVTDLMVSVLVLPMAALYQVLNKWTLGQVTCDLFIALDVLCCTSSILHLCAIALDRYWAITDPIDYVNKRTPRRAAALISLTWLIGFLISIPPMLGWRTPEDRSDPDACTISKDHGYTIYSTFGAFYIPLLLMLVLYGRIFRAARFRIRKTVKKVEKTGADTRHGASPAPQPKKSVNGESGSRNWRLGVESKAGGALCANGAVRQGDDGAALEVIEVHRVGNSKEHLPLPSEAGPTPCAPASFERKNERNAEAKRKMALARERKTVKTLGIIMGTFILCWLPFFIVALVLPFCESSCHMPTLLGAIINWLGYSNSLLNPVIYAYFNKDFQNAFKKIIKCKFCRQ", "conditions": "in contrast to buspirone"}, "[11]": {"molecular_target": "dopamine D3 receptor (Homo sapiens, UniProt P35462)", "sequence (P35462 whole entry, species assumed)": "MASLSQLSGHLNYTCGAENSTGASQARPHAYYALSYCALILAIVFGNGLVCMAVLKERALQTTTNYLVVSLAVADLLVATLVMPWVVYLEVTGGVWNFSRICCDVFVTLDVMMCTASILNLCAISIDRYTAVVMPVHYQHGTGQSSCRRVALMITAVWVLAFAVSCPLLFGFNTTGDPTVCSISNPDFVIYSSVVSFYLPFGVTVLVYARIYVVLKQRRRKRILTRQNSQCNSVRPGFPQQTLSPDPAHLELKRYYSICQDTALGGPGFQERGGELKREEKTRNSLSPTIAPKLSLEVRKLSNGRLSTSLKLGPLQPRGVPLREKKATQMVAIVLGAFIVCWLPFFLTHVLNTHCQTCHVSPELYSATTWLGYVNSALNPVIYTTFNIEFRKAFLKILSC"}, "[12]": {"tested_on": "neuroleptics sensitized monkey", "test": "Neuroleptics sensitized monkey, haloperidol challenge", "format": "in vivo", "conditions": "given after haloperidol challenge; scoring system", "excerpt": "Another typical animal model is the neuroleptics sensitized monkey according to D. E. Casey, Psychopharmacology, 1996; 124: 134-140. Monkeys treated repeatedly with conventional neuroleptics are highly sensitive to a subsequent challenge dose of neuroleptic drugs. When challenged, the monkeys immediately show extrapyramidal motor side effects such as dystonia, dyskinesias, akathisia, and bradykinesia which are rated by a scoring system. The conventional neuroleptic drug haloperidol is given as a challenge."}, "[13]": {"tested_on": "neuroleptics-induced muscle rigidity in rats", "test": "Neuroleptics-induced muscle rigidity in rats", "format": "in vivo, rat", "conditions": "resistance to passive flexion and extension of the hind limb", "excerpt": "A typical animal model is neuroleptics-induced muscle rigidity in rats according to S. Wolfarth et al., Arch. Pharmacol. 1992; 345: 209-212. Rats are challenged with the conventional neuroleptic drug haloperidol which enhances muscle tone. Muscle tone is electromechanically measured as the resistance to passive flexion and extension of the hind limb."}, "[14]": {"tested_on": "Parkinsonian cynomolgus monkey", "test": "MPTP Parkinsonian cynomolgus monkey, Laval University Disability Scale", "format": "in vivo", "conditions": "MPTP monkeys", "excerpt": "A typical animal model for idiopathic Parkinson's disease is the Parkinsonian cynomolgus monkey according to P. J. Blanchet et al., Exp. Neurology 1998; 153: 214-222. Monkeys render parkinsonian by repeated injections of 1-methyl-4-phenyl-1,2,3,6-tetrahydropyridine (MPTP). Parkinsonian symptoms are qualitatively assessed by the use of the Laval University Disability Scale (B. Gomez-Mancilla et al., 1993; Mov. Disord. 8: 144-150) measuring the following symptoms: posture, mobility, climbing, gait, holding food, vocalizing, grooming, social interaction."}, "[15]": {"tested_on": "striatonigral degeneration approach in the rat", "test": "Striatonigral degeneration in the rat (6-hydroxydopamine plus quinolinic acid), turning behavior", "format": "in vivo", "conditions": "automated recorder", "excerpt": "Another more recent animal model is the striatonigral degeneration approach in the rat according to […] et al., J. Neural Transm. Suppl., 1999; 55: 103-113. Rats receive an unilateral injection of 6-hydroxydopamine into the left medial forebrain bundle followed by an injection of quinolinic acid into the ipsilateral striatum inducing nigrostriatal degeneration. The degeneration results in turning behavior to a challenge with dopaminomimetics such as apomorphine or amphetamine. Turning behavior is measured by an automated recorder."}, "[16]": {"tested_on": "Weaver mutant mouse", "test": "Weaver mutant mouse (locomotor activity)", "format": "in vivo", "conditions": "activity cages", "excerpt": "as §2"}, "[17]": {"molecular_target": "D2 (Homo sapiens, UniProt P14416)", "sequence (P14416 whole entry)": "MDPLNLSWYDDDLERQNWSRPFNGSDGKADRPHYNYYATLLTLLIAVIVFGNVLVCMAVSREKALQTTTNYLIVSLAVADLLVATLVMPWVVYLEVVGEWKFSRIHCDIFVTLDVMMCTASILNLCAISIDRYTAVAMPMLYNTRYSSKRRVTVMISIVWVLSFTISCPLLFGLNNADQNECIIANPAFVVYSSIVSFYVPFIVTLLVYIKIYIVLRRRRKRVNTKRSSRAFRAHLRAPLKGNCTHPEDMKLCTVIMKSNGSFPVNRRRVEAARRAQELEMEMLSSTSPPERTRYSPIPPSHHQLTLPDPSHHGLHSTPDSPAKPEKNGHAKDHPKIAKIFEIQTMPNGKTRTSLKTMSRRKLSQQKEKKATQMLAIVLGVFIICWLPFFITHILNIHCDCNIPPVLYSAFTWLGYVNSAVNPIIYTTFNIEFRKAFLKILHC", "test": "D2 antagonism", "conditions": "under increased doses"}, "[18]": {"molecular_target": "T1, 5-HT1A receptor", "test": "biochemical"}, "[19]": {"conditions": "Abnormal Involuntary Movement Scale"}}, "data": [{"smiles": "Fc1ccc(-c2cncc(CNC[C@H]3CCc4ccccc4O3)c2)cc1", "note": "[(R)-(−)-2-[5-(4-fluorophenyl)-3-pyridylmethylaminomethyl]-chromane]", "values": [{"measurement": "dystonic dyskinesias", "setting": "[1]; [19]", "result": "reduced"}, {"measurement": "overall choreiform dyskinesias", "setting": "[1]; [19]", "result": "reduced"}, {"measurement": "psychotic states", "setting": "[1]; rating of attention, reactivity and mobility", "result": "reduced"}, {"measurement": "oxotremorine-induced tremors", "setting": "[2]", "result": "inhibited"}, {"measurement": "induction of catalepsy", "setting": "[3]", "result": "does not induce any catalepsy"}, {"measurement": "number of auditory-evoked myoclonic jerks", "setting": "[4]", "result": "dose-dependently reduced"}, {"measurement": "number of spontaneous myoclonic jerks", "setting": "[4]", "result": "dose-dependently reduced"}, {"measurement": "akinesia", "setting": "[5]", "result": "dose-dependently reduced"}, {"measurement": "distance traveled and time active", "setting": "[5]; activity meters", "result": "restored distance traveled and time active to about the level of normal animals"}, {"measurement": "severity of dystonic symptoms", "setting": "[6]", "result": "dose-dependently reduced"}, {"measurement": "nocturnal akinesia (hypoactivity)", "setting": "[7]; after four injections of 3-NP (late Huntington's disease)", "result": "reduced"}, {"measurement": "nocturnal hyperactivity", "setting": "[7]; after two injections of 3-NP (early Huntington's disease)", "result": "reduced"}, {"measurement": "prevention of catalepsy induced by conventional antidopaminergic drugs", "setting": "[8]", "result": "able to prevent catalepsy"}, {"measurement": "reversal of already existing catalepsy induced by conventional antidopaminergic drugs such as haloperidol", "setting": "[8]", "result": "reverses already existing catalepsy"}, {"measurement": "tremor when standing and during locomotion", "setting": "[9]", "result": "reduced disabling tremor"}, {"measurement": "potency as agonist at the 5-HT1A receptor relative to buspirone", "setting": "[10]", "result": 30, "unit": "fold"}, {"measurement": "affinity to the dopamine D3 receptor", "setting": "[11]", "result": "high affinity"}, {"measurement": "extrapyramidal motor side effects (dystonia, dyskinesias, akathisia, bradykinesia)", "setting": "[12]", "result": "dose-dependently reduced"}, {"measurement": "muscle tone enhanced by haloperidol", "setting": "[13]", "result": "decreased"}, {"measurement": "parkinsonian symptoms (Laval University Disability Scale)", "setting": "[14]", "result": "reduced all the parkinsonian symptoms"}, {"measurement": "total activity", "setting": "[14]", "result": "increased"}, {"measurement": "turning behavior induced by amphetamine", "setting": "[15]", "result": "dose-dependently antagonized"}, {"measurement": "turning behavior induced by apomorphine", "setting": "[15]", "result": "dose-dependently antagonized"}, {"measurement": "locomotor activity", "setting": "[16]", "result": "enhanced"}, {"measurement": "D2 antagonism", "setting": "[17]", "result": "exhibit a D2 antagonism under increased doses"}, {"measurement": "IC50", "setting": "[18]", "result": 1, "unit": "nM"}]}]}
